{
  "source": "ChEMBL document CHEMBL1144775",
  "about": "“Secondary metabolites from three Florida sponges with antidepressant activity” (J Nat Prod, 2008)",
  "key": {"Mus musculus [1]": {"test_system": "Mus musculus", "test": "Antidepressant like activity in ip dosed Swiss Webster mouse assessed as reduction of immobility time by forced-swim test", "assay_type": "functional, organism-based"}, "Mus musculus [2]": {"test_system": "Mus musculus", "test": "Antidepressant like activity in Swiss Webster mouse assessed as reduction of immobility time at 20 mg/kg, ip after 30 mins by forced-swim test", "assay_type": "functional, organism-based", "parameters": "dose 20 mg/kg"}, "Gallus gallus [3]": {"test_system": "Gallus gallus", "test": "Anxiolytic activity in Cockerels assessed as attenuation separation distress vocalization rate during first 5 mins in anxiety phase at 30 mg/kg, ip", "assay_type": "functional, organism-based", "parameters": "dose 30 mg/kg"}, "Gallus gallus [4]": {"test_system": "Gallus gallus", "test": "Antidepressant activity in Cockerels assessed as attenuation separation distress vocalization rate in final 30 mins of depression phase at 30 mg/kg, ip", "assay_type": "functional, organism-based", "parameters": "dose 30 mg/kg"}, "Mus musculus [5]": {"species_on_record": "Mus musculus", "test": "Sedative effect in Swiss Webster mouse assessed as locomotor activity", "assay_type": "organism-based", "details": "in vivo"}},
  "note": "The source made the active and inactive calls. The calls are words filed in the database; no cut-off is given here.",
  "data": [
    {"smiles": "C=C1CCC[C@H]2[C@](C)(CC3=C(O)C(=O)C=C(OC)C3=O)[C@@H](C)CC[C@]12C", "values": [
      {"measurement": "Activity", "setting": "Mus musculus [1]", "value": "inactive"}
    ]},
    {"smiles": "CN(C)CCc1c[nH]c2cc(Br)c(Br)cc12", "values": [
      {"measurement": "Activity", "setting": "Mus musculus [2]", "value": "Active"},
      {"measurement": "Activity", "setting": "Gallus gallus [3]", "value": "Active"},
      {"measurement": "Activity", "setting": "Gallus gallus [4]", "value": "Active"}
    ]},
    {"smiles": "CN(C)CCc1c[nH]c2ccc(Br)cc12", "values": [
      {"measurement": "Activity", "setting": "Mus musculus [5]", "value": "Active"},
      {"measurement": "Activity", "setting": "Mus musculus [1]", "value": "inactive"}
    ]},
    {"smiles": "CN1C(=N)N(C)/C(=C/c2c[nH]c3ccccc23)C1=O", "values": [
      {"measurement": "Activity", "setting": "Mus musculus [1]", "value": "inactive"}
    ]}
  ]
}
